Marks after values point to notes of the source that are not given here.
System: bedbug (Cimex lectularius)
Assay: Contact efficacy against bedbugs on various surfaces (wood, PVC, wallpaper, mattress, glass)
Type: in vivo
Conditions: for efficacy on wood, PVC, wallpaper, mattress and glass (summary in words): Example 106, imidacloprid 0.008% or 0.0016% (30 and 6 mg a.i./m^2)
Method: Adult Cimex lectularius, susceptible strain, were used. A solution of the active ingredient in acetone was prepared. In the same mode a complete […]. All these works were done under drawing off conditions. After evaporation of the acetone (30′) the dishes were closed by a glass lid and transferred into the test room.
One day later ten bedbugs, anaesthetized with CO2, were counted into each dish. At regular intervals, knock down was recorded (cumulatively).
The same methodology was used as was used in Example 105.

[1] = Glass, 0.008% imidacloprid (30 mg/m^2) in acetone
[2] = Mattress, 0.0016% imidacloprid (6 mg/m^2) in acetone
[3] = Mattress, 0.008% imidacloprid (30 mg/m^2) in acetone
[4] = PVC, 0.0016% imidacloprid (6 mg/m^2) in acetone
[5] = PVC, 0.008% imidacloprid (30 mg/m^2) in acetone
[6] = Wallpaper, 0.0016% imidacloprid (6 mg/m^2) in acetone
[7] = Wallpaper, 0.008% imidacloprid (30 mg/m^2) in acetone
[8] = Wood, 0.0016% imidacloprid (6 mg/m^2) in acetone
[9] = Wood, 0.008% imidacloprid (30 mg/m^2) in acetone

Structure (SMILES): O=[N+]([O-])NC1=NCCN1Cc1ccc(Cl)nc1 [imidacloprid]
- efficacy on wood, PVC, wallpaper, mattress and glass (summary in words): No efficacy was found on wood, PVC, wallpaper and mattress
- efficacy on wood, PVC, wallpaper, mattress and glass (summary in words) (listed as 0.008% imidacloprid): On glass, 0.008% imidacloprid alone acted relatively fast and had killed all bed bugs within one day
- % knock down or moribund after 1 h [1]: 0%
- % knock down or moribund after 2 h [1]: 100* %
- % knock down or moribund after 4 h [1]: 85%
- % knock down or moribund after 6 h [1]: 90%
- % knock down or moribund after 1 d [1]: 100%
- % knock down or moribund after 2 d [1]: 100%
- % knock down or moribund after 6 d [1]: 100%
- % knock down or moribund after 1 h [2]: 0%
- % knock down or moribund after 2 h [2]: 0%
- % knock down or moribund after 4 h [2]: 0%
- % knock down or moribund after 6 h [2]: 0%
- % knock down or moribund after 1 d [2]: 0%
- % knock down or moribund after 2 d [2]: 0%
- % knock down or moribund after 6 d [2]: 0%
- % knock down or moribund after 1 h [3]: 0%
- % knock down or moribund after 2 h [3]: 0%
- % knock down or moribund after 4 h [3]: 0%
- % knock down or moribund after 6 h [3]: 0%
- % knock down or moribund after 1 d [3]: 0%
- % knock down or moribund after 2 d [3]: 0%
- % knock down or moribund after 6 d [3]: 0%
- % knock down or moribund after 1 h [4]: 0%
- % knock down or moribund after 2 h [4]: 0%
- % knock down or moribund after 4 h [4]: 0%
- % knock down or moribund after 6 h [4]: 0%
- % knock down or moribund after 1 d [4]: 0%
- % knock down or moribund after 2 d [4]: 0%
- % knock down or moribund after 6 d [4]: 20%
- % knock down or moribund after 1 h [5]: 0%
- % knock down or moribund after 2 h [5]: 0%
- % knock down or moribund after 4 h [5]: 0%
- % knock down or moribund after 6 h [5]: 0%
- % knock down or moribund after 1 d [5]: 0%
- % knock down or moribund after 2 d [5]: 0%
- % knock down or moribund after 6 d [5]: 40%
- % knock down or moribund after 1 h [6]: 0%
- % knock down or moribund after 2 h [6]: 0%
- % knock down or moribund after 4 h [6]: 0%
- % knock down or moribund after 6 h [6]: 0%
- % knock down or moribund after 1 d [6]: 0%
- % knock down or moribund after 2 d [6]: 0%
- % knock down or moribund after 6 d [6]: 0%
- % knock down or moribund after 1 h [7]: 0%
- % knock down or moribund after 2 h [7]: 0%
- % knock down or moribund after 4 h [7]: 0%
- % knock down or moribund after 6 h [7]: 0%
- % knock down or moribund after 1 d [7]: 0%
- % knock down or moribund after 2 d [7]: 0%
- % knock down or moribund after 6 d [7]: 0%
- % knock down or moribund after 1 h [8]: 0%
- % knock down or moribund after 2 h [8]: 0%
- % knock down or moribund after 4 h [8]: 0%
- % knock down or moribund after 6 h [8]: 0%
- % knock down or moribund after 1 d [8]: 0%
- % knock down or moribund after 2 d [8]: 0%
- % knock down or moribund after 6 d [8]: 10%
- % knock down or moribund after 1 h [9]: 0%
- % knock down or moribund after 2 h [9]: 0%
- % knock down or moribund after 4 h [9]: 0%
- % knock down or moribund after 6 h [9]: 0%
- % knock down or moribund after 1 d [9]: 0%
- % knock down or moribund after 2 d [9]: 0%
- % knock down or moribund after 6 d [9]: 0%

Reference: US9028856B2, “Synergistic pesticide compositions” (priority 2008, dated 2015)
